Measurements: US10590115B2, “Tetrahydroquinazoline derivatives useful as anticancer agents” (PFIZER INC., priority 2018, dated 2020)

Tests used:
[1] = target: T1, KRAS G12C in MiaPaCa2 cells (Homo sapiens, UniProt P01116, G12C); assay: MiaPaCa2 Cell Activity Assay (Raf-1 RBD capture of active Ras, MSD); type: cell-based; conditions: MIAPaCa-2 cells, 6 hours treatment; assay limit is 30.0 μM
T1 construct: endogenous in cells; host or cells: MiaPaCa2
Procedure: MiaPaCa2 Cell Activity Assay
(§1) Compounds presented in the present invention lead to the accumulation of the GDP bound Ras upon treatment of human cancer cell line.
(§2) The accumulation of the GDP-bound KRAS G12C in cellular environment was measured based on the principle that KRAS G12C only binds to its downstream kinase; Raf-1 (MAP Kinase Kinase Kinase), when in its active-GTP bound state. In this state, Ras binded to a domain of Raf-1 kinase referred to as the Ras Binding Domain (RBD).
(§3) MiaPaCa2 cells were grown in DMEM medium (Gibco 11995) supplemented with 10% fetal bovine serum and 1% penicillin/streptomycin. Cells were seeded in 96-well tissue culture plates at a density of 40,000 cells/well and allowed to attach for 16-24 hours. Test compounds were prepared as a 10 mM stock in DMSO and serially diluted in 100% DMSO using a 3-fold dilution scheme. An intermediate 5× concentrated plate in complete growth medium was made and 25 μl/well was added to the 100 μl of cells for a final concentration of 0.1% DMSO. Each concentration of exemplary compound was tested in duplicate. The negative control wells were cells with control inhibitor at 10 μM, and the positive control wells were cells without drugs, DMSO only. Plates were incubated for 6 hours at 37° C., 5% CO2. Following treatment, cells were washed 3× with ice-cold PBS and 100 μl/well ice-cold 1× Assay/Lysis. Buffer with protease inhibitors was added (25 mM HEPES, pH 7.5, 150 mM NaCl, 1% NP-40, 10 mM MgCl2, 1 mM EDTA, 2% Glycerol). Following lysis samples were frozen at −80° C.
(§4) Raf-1 RBD (LJIC-1988A1) was diluted to 100 ng/well in PBS and 5 μl/well was spot coated onto MSD high bind SECTOR plates (L15XB). Plates were incubated at room temperature for 1 hour on an orbital shaker. Plates were washed with PBS/0.05% Tween-20 and 50 μl/well of thawed lysate samples were added, followed by 50 μl of 1% MSD Blocker A in PBS/0.05% Tween-20 (R93BA). Plates were incubated for 1 hour on an orbital shaker and washed with PBS/0.05% Tween-20. 25 μl/well of Anti-pan-Ras Antibody (Cell Biolabs 244003) diluted 1:3000 was added in 1% MSD Blocker A solution and plates were incubated for 1 hour on an orbital shaker and washed with PBS/0.05% Tween-20. SULFO-TAG goat anti-mouse secondary antibody (MSD R32AC) was diluted 1:500 in MSD Blocker A solution and added at 25 μL/well. Plates were incubated for 1 hour on an orbital shaker and washed with PBS/0.05% Tween-20. 150 μl/well of Read Buffer T (MSD R92TC) diluted 1:3 in H2O was added and plates were read on a Meso Scale Discovery Sector Imager S600.
(§5) KRAS signal was normalized to maximum inhibition and DMSO control values, and IC50 values were generated using a 4 parameter fit of the dose response curve. The decrease in IC50 reflects that the exemplary compound lead to a higher level of accumulation of GDP-bound KRAS G12C than another exemplary compounds at specific timepoint of treatment of cancer cell line.

KRAS G12C in H358 cells = target: T2, KRAS G12C in H358 cells (Homo sapiens, UniProt P01116, G12C); assay: H358 Cell Activity Assay (Raf-1 RBD capture of active Ras, MSD); type: cell-based; conditions: 6 hours treatment
T2 construct: endogenous in cells; host or cells: H358
Procedure: as §1, §2
as §3, with “H358” for “MiaPaCa2”, “RPMI 1640” for “DMEM”, “11875)” for “11995)”
as §4, §5

[2] = target: T3, GDP-loaded kRas (1-169) G12C, C51S, C80L, C118S (Homo sapiens, UniProt P01116, C118S/C51S/C80L/G12C); assay: Mass Spectrometry Reactivity Assay (MSRA), covalent adduct with kRas G12C; type: binding; conditions: 0.5 h at room temperature; 5 μM KRas protein; typical final concentration of the compounds 10 μM
T3 construct: GDP-loaded kRas (1-169) G12C, C51S, C80L, C118S
Procedure: Mass Spectrometry Reactivity Assay (MSRA)
Compounds presented in the present invention covalently bind to kRas G12C using MSRA to detect a covalent adduct of the exemplary compound and kRas G12C. GDP-loaded kRas (1-169) G12C, C51S, C80L, C118S were diluted in the protein assay buffer 25 mM Hepes pH7.5, 200 mM NaCl, 5% glycerol to concentration of 5 μM and 20 μl of protein was transferred into 96-well plate. […] See K-Ras(G12C) inhibitors allosterically control GTP affinity and effector interactions; Ostrem J M, Peters U, Sos M L, Wells J A, Shokat K M; Nature. 2013, Nov. 28; 503(7477):548-51.
Exemplary compounds dissolved in DMSO were diluted 100-fold into solution containing 20 μl of 5 μM KRas protein in the 96-well plate to initiate the reaction. Mosquito (TPP Lab tech) liquid handling robot was used to add compounds to protein solution. Typical final concentration of the compounds was 10 μM. The plates were placed on a shaker for 1 min at RT, sealed and incubated at room temperature for specified time period. 5 μl of reaction mix was added to 10 μl of 0.2% formic acid stop solution and mixed well. Typical end points were 30, 120, 600 and 1440 min.
Data were collected using Waters Acquity H-class UPLC system/Xevo G2-XS TOF mass spectrometer. The protein was injected in their liquid phase onto a Bruker Microtrap protein column TR1/15109/03. The following buffers were used to set LC gradient: Buffer A: 0.2% formic acid H20; B: 0.2% formic acid CAN. The protein was eluted from the column using the following LC Gradient: 0-0.4 min, 10% B to 30% B; 0.4 min-2.4 min, to 90% B, 2.5 min, 10% B, 3 min, 10% B. Initial data analysis was performed using MaxEnt software right after data acquisition.
The standard auto processing function was used to define percentage of unmodified and modified kRas protein using MexEnt software right after data acquisition. The highest peak was defined as 100% while smaller peak as assigned the number defined by autoprocessing function. The percent of modification corresponding to modified with exemplary compound and unmodified KRas GDP-loaded kRas (1-169) G12C, C51S, C80L, C118S were exported to Xcel data analysis software.
The percent of modified protein at the defined concentration of exemplary compound was calculated using the following formula: % mod=Num of modified peak/Sum of modified+unmodified.

C=CC(=O)N1CCN(c2nc(OCCCN(C)C)nc3c2C[C@@H](C)[C@H](c2c(Cl)c(C)cc4[nH]ncc24)C3)CC1 (relative stereo) [Example C7, 1-(4-{(6R,7R)-rel-7-(5-chloro-6-methyl-1H-indazol-4-yl)-2-[3-(dimethylamino)propoxy]-6-methyl-5,6,7,8-tetrahydroquinazolin-4-yl}piperazin-1-yl)prop-2-en-1-one]
IC50 [1]: 0.088 µM | IC50 (KRAS G12C in H358 cells): 0.106 µM | % Modification (0.5 h) [2]: 73%

C=CC(=O)N1CCN(c2nc(OCCN(C)C)nc3c2C[C@@H](C)[C@H](c2c(Cl)c(C)cc4[nH]ncc24)C3)CC1 (relative stereo) [Example C8, 1-(4-{(6R,7R)-rel-7-(5-chloro-6-methyl-1H-indazol-4-yl)-2-[2-(dimethylamino)ethoxy]-6-methyl-5,6,7,8-tetrahydroquinazolin-4-yl}piperazin-1-yl)prop-2-en-1-one]
IC50 [1]: 0.14 µM | IC50 (KRAS G12C in H358 cells): 0.116 µM | % Modification (0.5 h) [2]: 65%

C=CC(=O)N1CCN(c2nc(OC[C@H]3CCCN3C)nc3c2C[C@@H](C)[C@H](c2c(C)ccc4[nH]ncc24)C3)CC1 (relative stereo) [Example C10, 1-{4-[(6R,7R)-rel-6-methyl-7-(5-methyl-1H-indazol-4-yl)-2-{[(2R)-1-methylpyrrolidin-2-yl]methoxy}-5,6,7,8-tetrahydroquinazolin-4-yl]piperazin-1-yl}prop-2-en-1-one]
IC50 [1]: 0.236 µM | IC50 (KRAS G12C in H358 cells): 0.129 µM | % Modification (0.5 h) [2]: 80%

C=CC(=O)N1CCN(c2nc(N3CC(N(C)C)C3)nc3c2C[C@@H](C)[C@H](c2c(C)ccc4[nH]ncc24)C3)CC1 (relative stereo) [Example F1, 1-{4-[(6R,7R)-rel-2-[3-(dimethylamino)azetidin-1-yl]-6-methyl-7-(5-methyl-1H-indazol-4-yl)-5,6,7,8-tetrahydroquinazolin-4-yl]piperazin-1-yl}prop-2-en-1-one]
IC50 [1]: 0.429 µM | IC50 (KRAS G12C in H358 cells): 0.36 µM | % Modification (0.5 h) [2]: 59%

C=CC(=O)N1CCN(c2nc(N3CC(N(C)C)C3)nc3c2C[C@@H](C)[C@H](c2c(Cl)ccc4[nH]ncc24)C3)CC1 (single isomer, unassigned) [Example F10]
IC50 [1]: 0.169 µM | IC50 (KRAS G12C in H358 cells): 0.395 µM

C=CC(=O)N1CC2(C1)CN(c1ncnc3c1CCC(c1c(C)ccc4[nH]ncc14)C3)C2 (stereo not shown) [Example B1, 1-{6-[7-(5-methyl-1H-indazol-4-yl)-5,6,7,8-tetrahydroquinazolin-4-yl]-2,6-diazaspiro[3.3]hept-2-yl}prop-2-en-1-one]
IC50 [1]: 18.7 µM | % Modification (0.5 h) [2]: 9%

C=CC(=O)N1CCN(c2ncnc3c2CCC(c2c(C)ccc4[nH]ncc24)C3)CC1C (stereo not shown) [Example B3, 1-{2-methyl-4-[7-(5-methyl-1H-indazol-4-yl)-5,6,7,8-tetrahydroquinazolin-4-yl]piperazin-1-yl}prop-2-en-1-one]
IC50 [1]: 28.4 µM | % Modification (0.5 h) [2]: 7%

C=CC(=O)N1CCN(c2nc(OCCOC)nc3c2CCC(c2c(C)ccc4[nH]ncc24)C3)CC1 (stereo not shown) [Example C1, 1-{4-[2-(2-methoxyethoxy)-7-(5-methyl-1H-indazol-4-yl)-5,6,7,8-tetrahydroquinazolin-4-yl]piperazin-1-yl}prop-2-en-1-one]
IC50 [1]: 9.84 µM | % Modification (0.5 h) [2]: 19%

C=CC(=O)N1CCN(c2nc(OCCO)nc3c2CCC(c2c(C)ccc4[nH]ncc24)C3)CC1 (stereo not shown) [Example C3, 1-{4-[2-(2-hydroxyethoxy)-7-(5-methyl-1H-indazol-4-yl)-5,6,7,8-tetrahydroquinazolin-4-yl]piperazin-1-yl}prop-2-en-1-one]
IC50 [1]: 12 µM | % Modification (0.5 h) [2]: 15%

C=CC(=O)N1CCN(c2nc(OCCCO)nc3c2CCC(c2c(C)ccc4[nH]ncc24)C3)CC1 (stereo not shown) [Example C4, 1-{4-[2-(3-hydroxpropoxy)-7-(5-methyl-1H-indazol-4-yl)-5,6,7,8-tetrahydroquinazolin-4-yl]piperazin-1-yl}prop-2-en-1-one]
IC50 [1]: 3.61 µM | % Modification (0.5 h) [2]: 34%

C=CC(=O)N1CCN(c2nc(N3CC(N(C)C)C3)nc3c2C[C@H](C)[C@@H](c2c(Cl)c(C)cc4[nH]ncc24)C3)CC1 [Example F8, 1-(4-{(6S,7S)-7-(5-chloro-6-methyl-1H-indazol-4-yl)-2-[3-(dimethylamino)azetidin-1-yl]-6-methyl-5,6,7,8-tetrahydroquinazolin-4-yl}piperazin-1-yl)prop-2-en-1-one]
IC50 [1]: 22.9 µM | % Modification (0.5 h) [2]: 12%

C=CC(=O)N1CCN(c2nc(N3CC(N(C)C)C3)nc3c2C[C@@H](C)[C@H](c2c(C)c(Cl)cc4[nH]ncc24)C3)C[C@H]1C [Example F13, 1-[(2R)-4-{(6R,7R)-7-(6-chloro-5-methyl-1H-indazol-4-yl)-2-[3-(dimethylamino)azetidin-1-yl]-6-methyl-5,6,7,8-tetrahydroquinazolin-4-yl}-2-methylpiperazin-1-yl]prop-2-en-1-one]
IC50 [1]: 0.113 µM | % Modification (0.5 h) [2]: 79%
